Reference: US9067977B2, “Peptides derivatized with A-B-C-D- and their therapeutical use” (Novo Nordisk A/S, priority 2007, dated 2015)

Biological target: human serum albumin (HSA) (Homo sapiens, UniProt P02768)
Experiment: in vitro
Conditions: pH 7.4
Experimental: Streptavidin-SPA beads (GE Healthcare RPNQ0009) were incubated with biotinylated HSA for 5 hours. The beads were washed with buffer to remove unbound HSA. […] After 20 hours of gentle rocking at room temperature the plates were centrifuged and counted on a TopCounter.

Chain of human serum albumin (HSA) (P02768 25-609): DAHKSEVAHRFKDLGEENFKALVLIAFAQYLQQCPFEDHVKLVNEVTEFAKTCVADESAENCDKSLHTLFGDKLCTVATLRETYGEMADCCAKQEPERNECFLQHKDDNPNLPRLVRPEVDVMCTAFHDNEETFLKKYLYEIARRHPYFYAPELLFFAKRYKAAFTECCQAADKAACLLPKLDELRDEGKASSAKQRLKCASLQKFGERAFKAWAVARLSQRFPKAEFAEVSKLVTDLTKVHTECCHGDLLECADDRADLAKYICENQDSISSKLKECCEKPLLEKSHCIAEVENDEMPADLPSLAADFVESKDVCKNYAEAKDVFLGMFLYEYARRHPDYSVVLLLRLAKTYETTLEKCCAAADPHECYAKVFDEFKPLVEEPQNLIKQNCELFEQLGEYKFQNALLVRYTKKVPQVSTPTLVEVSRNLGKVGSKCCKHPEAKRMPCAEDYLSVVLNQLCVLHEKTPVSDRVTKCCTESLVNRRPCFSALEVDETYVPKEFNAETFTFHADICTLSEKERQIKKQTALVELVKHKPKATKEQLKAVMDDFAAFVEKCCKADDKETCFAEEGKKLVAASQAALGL

EC50 at 20 h: 150 to 300 nM
Compound: CC[C@H](C)[C@H](NC(=O)[C@H](Cc1ccccc1)NC(=O)[C@H](CCC(=O)O)NC(=O)[C@H](CCCCNC(=O)COCCOCCNC(=O)CC[C@H](NC(=O)CC[C@H](NC(=O)CCCCCNC(=O)CCCS(=O)(=O)NC(=O)CCCCCCCCCCCCCCCc1nnn[nH]1)C(=O)O)C(=O)O)NC(=O)[C@H](C)NC(=O)[C@H](C)NC(=O)[C@H](CCC(N)=O)NC(=O)CNC(=O)[C@H](CCC(=O)O)NC(=O)[C@H](CC(C)C)NC(=O)[C@H](Cc1ccc(O)cc1)NC(=O)[C@H](CO)NC(=O)[C@H](CO)NC(=O)[C@@H](NC(=O)[C@H](CC(=O)O)NC(=O)[C@H](CO)NC(=O)[C@@H](NC(=O)[C@H](Cc1ccccc1)NC(=O)[C@@H](NC(=O)CNC(=O)[C@H](CCC(=O)O)NC(=O)C(C)(C)NC(=O)[C@@H](N)Cc1c[nH]cn1)[C@@H](C)O)[C@@H](C)O)C(C)C)C(=O)N[C@@H](C)C(=O)N[C@@H](Cc1c[nH]c2ccccc12)C(=O)N[C@@H](CC(C)C)C(=O)N[C@H](C(=O)N[C@@H](CCCNC(=N)N)C(=O)NCC(=O)O)C(C)C [Example 40, N-epsilon26-[2-(2-{2-[(S)-4-Carboxy-4-((S)-4-carboxy-4-{6-[4-(16-(1H-tetrazol-5-yl)hexadecanoylsulfamoyl)butyrylamino]hexanoylamino}butyrylamino)butyrylamino]ethoxy}ethoxy)acetyl][Aib8,Arg34]GLP-1-(7-35)]
